Here are results for 5 compounds from patent US10961189B2, “Spiro-lactam NMDA receptor modulators and uses thereof” (Aptinyx Inc., priority 2016, dated 2021).

The subject of assay [1] is rats. Description: positive emotional learning (PEL) test, 50-kHz ultrasonic vocalizations. The following applies: PO, one hour after administration. It is filed as in vivo, rat. Here is the method:
Experiments were conducted as described in Burgdorf et al., “The effect of selective breeding for differential rates of 50-kHz ultrasonic vocalizations on emotional behavior in rats,” Devel. Psychobiol., 51:34-46 (2009). Rat 50-kHz ultrasonic vocalization (hedonic USVs) is a validated model for the study of positive affective state and is best elicited by rough-and-tumble play.
The PEL assay measures the acquisition of positive (hedonic) 50-kHz ultrasonic vocalizations (USVs) to a social stimulus, heterospecific rough and tumble play stimulation. Heterospecific rough-and-tumble play stimulation was administered by the experimenter's right hand. One hour after administration of test compound or vehicle negative control (0.5% sodium carboxymethyl cellulose in […] sterile saline), animals received 3 min of heterospecific rough-and-tumble play that consisted of alternating 15 sec blocks of heterospecific play and 15 sec of no-stimulation. High frequency ultrasonic vocalizations (USVs) were recorded and analyzed by sonogram with Avasoft SASlab Pro (Germany) as previously described by Burgdorf et al., “Positive emotional learning is regulated in the medial prefrontal cortex by GluN2B-containing NMDA receptors,” Neuroscience, 192:515-523 (2011). Frequency modulated 50-kHz USVs that occurred during each of the no-stimulation periods were quantified to measure PEL. Animals were not habituated to play stimulation before testing. Positive emotional learning was measured during the conditioned stimulus (CS) trials preceding the tickle unconditioned stimulus (UCS) trials. Animals received 15 second trials consisting of 6 CS and 6 UCS trials each (3 min total).
The table below summarizes the findings. As each experiment includes its own vehicle group, an example (typical) vehicle score is shown. Max effect (mean number of 50 kHz USVs per 15 seconds) is reported as ^: <6.0; *: 6-10.9; **: 11-16.9; ***: 17-22.

In assay [2] the test system is Sprague Dawley rats. Briefly: Bennett model of mechanical analgesia (sciatic nerve chronic constriction, paw withdrawal threshold).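 Note: log paw withdrawal threshold scaled from vehicle group mean (0%) to naive 15 g value (100%).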 It is filed as in vivo, rat. The procedure: The Bennett model of mechanical analgesia is used to assess the analgesic effects of compounds as measured by paw withdrawal threshold. Bennett GJ, Xie YK, “A peripheral mononeuropathy in rat that produces disorders of pain sensation like those seen in man,” Pain 33:87-107, 1988. […] Vehicle animals receive the surgery and then receive vehicle rather than test compound. Animals were tested 1 hr, 24 h and 1 wk post-test compound or vehicle administration.
Male 2-3 month old Sprague Dawley rats were used. Harlan was the supplier for all studies. Rats were housed in Lucite cages with aspen wood chip bedding, maintained on a 12:12 light:dark cycle (lights on at 5 AM), and given ad libitum access to Purina lab chow (USA) and tap water throughout the study.
Rats were anesthetized using inhaled isoflurane (2.5%). Sciatic nerve chronic constriction nerve injury surgery was performed as previously described (Bennett and Xie, 1988). An incision (˜1.5 cm in length) was made with a scalpel blade dorsally through skin on the right hind limb, parallel and posterior to femur. Using a small pointed hemostat, the biceps femoris and gluteus superficialis muscles were separated. Using curved blunt forceps, the common sciatic nerve was isolated and exposed. For the mechanical analgesia studies, the whole sciatic nerve was ligated. Using hemostats/forceps and chromic gut (5-0), the nerve was loosely ligated with a square knot; 3 ligatures, 1 mm apart were placed on the nerve. […] Testing occurred approximately 2 weeks post-surgery.
During testing, rats were acclimated to the surface of a suspended wire mesh grid (1 cm×1 cm, with the wire being 0.3 cm in diameter) for 15-20 min. Starting from the smallest, each Von Frey filament was pressed perpendicularly to the plantar surface of the affected (ipsilateral) hind paw until slightly bent and then held for 6 second. If an obvious hind paw withdrawal or a flinching behavior immediately after the withdrawal of the filament was not observed, the next larger filament was used in the same manner. In case of a response, a lower filament was used. This was repeated until six responses were collected.
For all studies, animals were baselined prior to study start to test for allodynia (defined as a paw withdrawal threshold under 5). A subset of animals was tested with gabapentin (150 mg/kg, PO) to ensure at least 50% analgesia. Once it was confirmed animals were ready for study initiation, animals were balanced across groups. All study investigators were blind to treatment conditions. Animals were dosed with 0.1, 1 or 10 mg/kg of test compound via oral gavage (PO), control sets of animals were dosed with gabapentin (150 mg/kg, PO) or vehicle (0.5% Na-CMC in 0.9% sterile saline, PO). Testing occurred 1 h post-dosing with animals retested 24 hrs and 1 week post-dosing. The percent analgesia calculations for each animal were made using the following equation: % analgesia=[(log(x)−y)/((log (z)−y)]*100, where x=the paw withdrawal threshold for the drug-treated animal in grams, y=the average of the log(x) values for the vehicle treated group, and z=the paw withdrawal threshold for naïve animals in grams (historical value of 15 used).
The results are shown in the table below where the percentage of analgesia is measured at 1 hour, 24 hours, and 1 week after compound administration. Since each study had its own gabapentin control group, an example gabapentin control value is shown.

As to `CC1CCC2(CC1)CNC2=O` (racemic) [Compound AD, 7-methyl-2-azaspiro[3.5]nonan-1-one], the “Max Effect (mean number of 50 kHz USVs per 15 seconds)” value in assay [1] (dose .001-1 mg/kg) was “*** (***: 17-22)”. In addition, the “% analgesia” value in assay [2] (0.1 mg/kg PO, 1 wk) was determined as 0%; in assay [2] (0.1 mg/kg PO, 1 h), 18.4%; in assay [2] (0.1 mg/kg PO, 24 h), 4.7%; in assay [2] (1 mg/kg PO, 1 wk), 17.9%; in assay [2] (1 mg/kg PO, 1 h) it was 15.4%; in assay [2] (1 mg/kg PO, 24 h), 13.8%. For the same compound, the “% analgesia” value in assay [2] (10 mg/kg PO, 1 wk) is reported as 15.5%; in assay [2] (10 mg/kg PO, 1 h), 15.3%; in assay [2] (10 mg/kg PO, 24 h) it was 7.6%.
In the case of `COc1ccc(CN2CC3(CCC(O)CC3)C2=O)cc1` (centres unmarked) [AG], the “Max Effect (mean number of 50 kHz USVs per 15 seconds)” value in assay [1] (dose .001-1 mg/kg) is on record as “** (**: 11-16.9)”. Also, the “% analgesia” value in assay [2] (0.1 mg/kg PO, 1 wk) is reported as 1.7%; in assay [2] (0.1 mg/kg PO, 1 h), 26.7%; in assay [2] (0.1 mg/kg PO, 24 h), 14.8%; in assay [2] (1 mg/kg PO, 1 wk), 0%; in assay [2] (1 mg/kg PO, 1 h), 41.5%; in assay [2] (1 mg/kg PO, 24 h), 23.7%. Besides, the “% analgesia” value in assay [2] (10 mg/kg PO, 1 wk) is on record as 0%; in assay [2] (10 mg/kg PO, 1 h), 56.9%; in assay [2] (10 mg/kg PO, 24 h), 26.7%.
`O=C1NCC12CCC(O)CC2` (centres unmarked) [AL, 7-hydroxy-2-azaspiro[3.5]nonan-1-one]: the “Max Effect (mean number of 50 kHz USVs per 15 seconds)” value in assay [1] (dose .001-1 mg/kg) was “** (**: 11-16.9)”. Moreover, the “% analgesia” value amounted to 3.1% in assay [2] (0.1 mg/kg PO, 1 wk); 20.9% in assay [2] (0.1 mg/kg PO, 1 h); 10.8% in assay [2] (0.1 mg/kg PO, 24 h); 6.6% in assay [2] (1 mg/kg PO, 1 wk); 52.7% in assay [2] (1 mg/kg PO, 1 h); 14.4% in assay [2] (1 mg/kg PO, 24 h). For the same compound, the “% analgesia” value was found to be 1.1% in assay [2] (10 mg/kg PO, 1 wk); 61.9% in assay [2] (10 mg/kg PO, 1 h); 13.8% in assay [2] (10 mg/kg PO, 24 h).
Take `C[C@@H](O)[C@H](NC1CCC2(CC1)CNC2=O)C(N)=O` (single isomer, unassigned) [AP]: the “Max Effect (mean number of 50 kHz USVs per 15 seconds)” value in assay [1] (dose .1 mg/kg) is “** (**: 11-16.9)”. For the same compound, the “% analgesia” value is listed as 0% in assay [2] (10 mg/kg PO, 1 wk); 28.0% in assay [2] (10 mg/kg PO, 1 h); 0% in assay [2] (10 mg/kg PO, 24 h).
For the compound `O=C1NCC12CCC(OCc1ccccc1)CC2` (single isomer, unassigned) [AI, 7-(benzyloxy)-2-azaspiro[3.5]nonan-1-one], the “Max Effect (mean number of 50 kHz USVs per 15 seconds)” value in assay [1] (dose .001-1 mg/kg) is recorded as “** (**: 11-16.9)”. For the same compound, the “% analgesia” value is given as 7.7% in assay [2] (0.1 mg/kg PO, 1 wk); 5.3% in assay [2] (0.1 mg/kg PO, 1 h); 7.7% in assay [2] (0.1 mg/kg PO, 24 h); 10.2% in assay [2] (1 mg/kg PO, 1 wk); 40.4% in assay [2] (1 mg/kg PO, 1 h); 23.4% in assay [2] (1 mg/kg PO, 24 h). The “% analgesia” value worked out at 22.0% in assay [2] (10 mg/kg PO, 1 wk); 50.0% in assay [2] (10 mg/kg PO, 1 h); 33.2% in assay [2] (10 mg/kg PO, 24 h).
